Laboratory results published in the supplement of paper PMC10307832.

What was measured:
Test in all cases: relative viability (nuclei count vs DMSO), 5 days (fraction); higher = more cells survive
Dasatinib + Trametinib = compound: Cc1nc(Nc2ncc(C(=O)Nc3c(C)cccc3Cl)s2)cc(N2CCN(CCO)CC2)n1 [Dasatinib] + CC(=O)Nc1cccc(-n2c(=O)n(C3CC3)c(=O)c3c(Nc4ccc(I)cc4F)n(C)c(=O)c(C)c32)c1 [Trametinib] (partner 0.02 µM)
Method in brief: (§1)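 For relative viability, nuclei counts in treated wells were divided by those in vehicle wells. Lung cancer cell lines had been pin-tool dosed in 1536-well plates the day after seeding and cultured for 5 days, then fixed and stained in one step (final 0.05% Triton X-100, 1% formaldehyde, 1 ug/ml Hoechst) and imaged at 4×. Doses were one drug alone or a fixed anchor-drug dose plus five library-drug doses (not always all listed) in √10 steps, and values are duplicate-plate medians.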

Dasatinib + Olaparib = compound: Cc1nc(Nc2ncc(C(=O)Nc3c(C)cccc3Cl)s2)cc(N2CCN(CCO)CC2)n1 [Dasatinib] + O=C(c1cc(Cc2n[nH]c(=O)c3ccccc23)ccc1F)N1CCN(C(=O)C2CC2)CC1 [Olaparib] (partner 8 µM)
Method in brief: as §1

Dasatinib + Pictilisib = compound: Cc1nc(Nc2ncc(C(=O)Nc3c(C)cccc3Cl)s2)cc(N2CCN(CCO)CC2)n1 [Dasatinib] + CS(=O)(=O)N1CCN(Cc2cc3nc(-c4cccc5[nH]ncc45)nc(N4CCOCC4)c3s2)CC1 [Pictilisib] (partner 1 µM)
Method in brief: as §1

ALW-II-49-7 + Foretinib = compound: Cc1ccc(C(=O)Nc2cccc(C(F)(F)F)c2)cc1Nc1cncc(C(N)=O)c1 [ALW-II-49-7] + COc1cc2c(Oc3ccc(NC(=O)C4(C(=O)Nc5ccc(F)cc5)CC4)cc3F)ccnc2cc1OCCCN1CCOCC1 [Foretinib] (partner 0.25 µM)
Method in brief: as §1

Row | Cell Line | relative viability (Dasatinib + Trametinib; first compound 0.005 µM) | relative viability (Dasatinib + Trametinib; first compound 0.01581 µM) | relative viability (Dasatinib + Trametinib; first compound 0.05 µM) | relative viability (Dasatinib + Trametinib; first compound 0.1581 µM) | relative viability (Dasatinib + Trametinib; first compound 0.5 µM) | relative viability (Dasatinib + Olaparib; first compound 0.005 µM) | relative viability (Dasatinib + Olaparib; first compound 0.01581 µM) | relative viability (Dasatinib + Olaparib; first compound 0.05 µM) | relative viability (Dasatinib + Olaparib; first compound 0.1581 µM) | relative viability (Dasatinib + Olaparib; first compound 0.5 µM) | relative viability (Dasatinib + Pictilisib; first compound 0.005 µM) | relative viability (Dasatinib + Pictilisib; first compound 0.01581 µM) | relative viability (Dasatinib + Pictilisib; first compound 0.05 µM) | relative viability (Dasatinib + Pictilisib; first compound 0.1581 µM) | relative viability (Dasatinib + Pictilisib; first compound 0.5 µM) | relative viability (ALW-II-49-7 + Foretinib; first compound 0.08 µM) | relative viability (ALW-II-49-7 + Foretinib; first compound 0.253 µM) | relative viability (ALW-II-49-7 + Foretinib; first compound 0.8 µM) | relative viability (ALW-II-49-7 + Foretinib; first compound 2.53 µM) | relative viability (ALW-II-49-7 + Foretinib; first compound 8 µM)
1 | NCI-H727 | 0.355 | 0.281 | 0.322 | 0.296 | 0.25 | 0.74 | 0.603 | 0.654 | 0.618 | 0.288 | 0.33 | 0.267 | 0.258 | 0.209 | 0.176 | 1.17 | 0.832 | 1.1 | 0.912 | 1.08
2 | NCI-H358 | 0.151 | 0.116 | 0.105 | 0.0936 | 0.089 | 0.464 | 0.431 | 0.427 | 0.303 | 0.139 | 0.383 | 0.232 | 0.287 | 0.206 | 0.208 | 0.691 | 0.658 | 0.575 | 0.809 | 0.689
3 | NCI-H1437 | 0.55 | 0.465 | 0.433 | 0.305 | 0.25 | 0.636 | 0.624 | 0.656 | 0.566 | 0.532 | 0.543 | 0.408 | 0.37 | 0.31 | 0.222 | 1.35 | 1.26 | 1.2 | 1.26 | 1.16
4 | NCI-H441 | 0.409 | 0.418 | 0.328 | 0.208 | 0.181 | 0.532 | 0.529 | 0.519 | 0.387 | 0.309 | 0.555 | 0.437 | 0.381 | 0.211 | 0.145 | 1.02 | 1.01 | 1.14 | 1.22 | 0.854
5 | EMC-BAC-2 | 0.965 | 0.93 | 0.923 | 0.857 | 0.716 | 0.462 | 0.404 | 0.447 | 0.355 | 0.301 | 0.455 | 0.344 | 0.327 | 0.243 | 0.185 | 0.968 | 1.04 | 0.989 | 0.885 | 0.878
6 | NCI-H647 | 0.372 | 0.224 | 0.244 | 0.145 | 0.116 | 0.428 | 0.301 | 0.217 | 0.139 | 0.116 | 0.258 | 0.308 | 0.182 | 0.11 | 0.122 | 1.36 | 1.32 | 1.23 | 1.09 | 1.06
7 | CAL-12T | 0.331 | 0.324 | 0.343 | 0.198 | 0.138 | 0.689 | 0.688 | 0.877 | 0.755 | 0.575 | 0.303 | 0.586 | 0.337 | 0.223 | 0.128 | 1.11 | 1.14 | 1.19 | 1.07 | 0.843
8 | NCI-H1792 | 0.343 | 0.272 | 0.324 | 0.218 | 0.0771 | 0.385 | 0.348 | 0.411 | 0.2 | 0.0885 | 0.317 | 0.222 | 0.234 | 0.128 | 0.0699 |  |  |  |  | 
9 | H3255 | 0.667 | 0.489 | 0.587 | 0.431 | 0.297 | 0.551 | 0.604 | 0.563 | 0.476 | 0.341 | 0.474 | 0.446 | 0.342 | 0.234 | 0.152 | 1.01 | 0.827 | 0.939 | 1.02 | 0.703
10 | HCC-78 | 0.676 | 0.679 | 0.643 | 0.444 | 0.354 | 0.596 | 0.649 | 0.639 | 0.577 | 0.243 | 0.185 | 0.212 | 0.183 | 0.159 | 0.178 | 0.524 | 0.487 |  | 0.528 | 0.586
11 | EBC-1 |  |  |  |  |  | 0.803 | 0.619 | 0.612 | 0.613 | 0.602 | 0.329 | 0.231 | 0.216 | 0.181 | 0.204 | 0.0976 | 0.11 | 0.098 | 0.0988 | 0.114
12 | NCI-H2405 | 0.431 | 0.365 | 0.351 | 0.272 | 0.233 | 0.749 | 0.531 | 0.458 | 0.282 | 0.231 | 0.353 | 0.294 | 0.261 | 0.197 | 0.16 | 1.03 | 1.06 | 0.998 | 0.847 | 0.895
13 | A549 |  |  |  |  |  | 0.312 | 0.306 | 0.269 | 0.308 | 0.116 | 0.388 | 0.257 | 0.3 | 0.134 | 0.0986 | 0.918 | 0.92 | 0.78 | 0.961 | 0.824
14 | NCI-H3122 | 0.234 | 0.249 | 0.248 | 0.222 | 0.192 | 0.606 | 0.543 | 0.657 | 0.574 | 0.534 | 0.704 | 0.753 | 0.755 | 0.614 | 0.445 | 1.06 | 0.978 | 0.96 | 1.03 | 0.931
15 | NCI-H1563 |  |  |  |  |  |  |  |  |  |  | 0.66 | 0.564 | 0.584 | 0.597 | 0.558 | 0.942 | 0.97 | 0.948 | 0.95 | 0.899
16 | HCC-44 | 1.11 | 0.94 | 1.16 | 1.17 | 0.574 | 1.03 | 0.958 | 1.11 | 1.13 | 0.986 | 0.517 | 0.392 | 0.39 | 0.291 | 0.148 |  |  |  |  | 
17 | PC-3 [JPC-3] | 0.771 | 0.736 | 0.79 | 0.704 | 0.528 | 1.22 | 1.14 | 1.16 | 1.08 | 0.609 | 0.881 | 0.676 | 0.734 | 0.706 | 0.317 | 0.995 | 1.09 | 1.01 | 1.01 | 1.02
